From patent EP0745599A2, “1-(3-Heterocyclylphenyl)-s-triazine-2,4,6-oxo or thiotrione herbicidal agents” (American Cyanamid Company, priority 1995, dated 1996) come the findings set out here.

Structures are written as SMILES.

Common to all, as to type: in vivo
Common to all, as to details: rated four to five weeks after treatment

Assay [1] deals with GLYCINE MAX(L)MERR. CV. WILLIAMS
The assay can be described thus: Preemergence herbicidal evaluation, GLXMAW (Soybean, Williams). An excerpt: (§1) Results of herbicide evaluation are expressed on a rating scale (0-9). The scale is based upon a visual observation of plant stand, vigor, malformation, size, chlorosis and overall plant appearance as compared with a control.
(§2) The preemergence herbicidal activity of the test compounds of the present invention is exemplified by the following tests in which the seeds of a variety of monocotyledonous and dicotyledonous plants are separately mixed with potting soil and planted on top of approximately one inch of soil in separate pint cups. After planting, the cups are sprayed with the selected aqueous acetone solution containing test compound in sufficient quantity to provide the equivalent of about 0.125 to 0.50 kg per hectare of test compound per cup. The treated cups are then placed on greenhouse benches, watered and cared for in accordance with conventional greenhouse procedures. From four to five weeks after treatment, the tests are terminated and each cup is examined and rated according to the rating system provided in Example 42.

Assay [2] relates to ORYZA SATIVA, L. TEBONNET
In words: Preemergence herbicidal evaluation, ORYSAT (Rice, Tebonnet).
Text: as §1, §2

Assay [3] deals with ABUTILON THEOPHRASTI, MEDIC. In words: Postemergence herbicidal evaluation, ABUTH (Velvetleaf). The protocol:
In the tests, seedling plants are grown in jiffy flats for about two weeks. The test compounds are dispersed in 50/50 acetone/water mixtures containing 0.5% TWEEN®20, a polyoxyethylene sorbitan monolaurate surfactant of Atlas Chemical Industries, in sufficient quantities to provide the equivalent of about 0.125 kg to 0.500 kg per hectare of active compound when applied to the plants through a spray nozzle operating at 40 psi for a predetermined time. After spraying, the plants are placed on greenhouse benches and are cared for in the usual manner, commensurate with conventional greenhouse practices. From four to five weeks after treatment, the seedling plants are examined and rated according to the rating system set forth below. Where more than one test is involved for a given compound, the data are averaged.
as §1

The next assay relates to CHENOPODIUM ALBUM, L. In words: Preemergence herbicidal evaluation, CHEAL (Lambsquarters, Common).
Text: as §1, §2

The subject of a further assay is GALIUM APARINE. In words: Preemergence herbicidal evaluation, GALAP (Galium).
Text: as §1, §2

In assay [4] the test system is TRITICUM AESTIVUM, CV. APOLLO. In words: Preemergence herbicidal evaluation, TRZAWO (Wheat, Winter, CV. APOLLO).
Text: as §1, §2

The subject of a further assay is ZEA MAYS L. In words: Preemergence herbicidal evaluation, ZEAMX (Corn, Field).
Text: as §1, §2

The next assay deals with IPOMOEA SPP. The assay can be described thus: Preemergence herbicidal evaluation, IPOSS (Morningglory Spp.).
Text: as §1, §2

Assay [5] deals with ECHINOCHLOA CRUS-GALLI, (L) BEAU. The assay can be described thus: Preemergence herbicidal evaluation, ECHCG (Barnyardgrass).
Text: as §1, §2

In assay [6] the test system is SETARIA VIRIDIS, (L) BEAU. The assay can be described thus: Preemergence herbicidal evaluation, SETVI (Foxtail, Green).
Text: as §1, §2

`COC(=O)Cn1c(=O)n(C)c(=O)n(-c2cc(N3C(=O)C4=C(CCCC4)C3=O)c(F)cc2Cl)c1=O` [Compound 1, Methyl 3-[2-Chloro-5-(1-cyclohexene-1,2-dicarboximido)-4-fluorophenyl]tetrahydro-5-methyl-2,4,6-trioxo-s-triazine-1(2H)-acetate]: the “Herbicide rating (0-9) GLXMAW” value in [1] (0.125 kg/ha), in assay [1] (0.250 kg/ha) and in assay [1] (0.500 kg/ha) was 0.0 in each case. Moreover, the “Herbicide rating (0-9) ORYSAT” value in assay [2] (0.125 kg/ha), in assay [2] (0.250 kg/ha) and in [2] (0.500 kg/ha) was 0.0 in each case. Besides, the “Herbicide rating (0-9) ABUTH” value in assay [3] (0.125 kg/ha), in [3] (0.250 kg/ha) and in assay [3] (0.500 kg/ha) was 9.0 in each case. The “Herbicide rating (0-9) CHEAL” value in the assay with CHENOPODIUM ALBUM, L. (0.125 kg/ha) turned out to be 9.0; with CHENOPODIUM ALBUM, L. (0.250 kg/ha), 9.0; in the assay with CHENOPODIUM ALBUM, L. (0.500 kg/ha), 9.0. The “Herbicide rating (0-9) GALAP” value with GALIUM APARINE (0.250 kg/ha) and with GALIUM APARINE (0.500 kg/ha) was 0.0 throughout. The “Herbicide rating (0-9) TRZAWO” value in assay [4] (0.125 kg/ha), in assay [4] (0.250 kg/ha) and in [4] (0.500 kg/ha) was 0.0 throughout. Further, the “Herbicide rating (0-9) ZEAMX” value with ZEA MAYS L. (0.125 kg/ha), in the assay on ZEA MAYS L. (0.250 kg/ha) and in the assay on ZEA MAYS L. (0.500 kg/ha) was 0.0 in each case.
`Cn1c(=O)n(CC(=O)OC(C)(C)C)c(=O)n(-c2cc(N3C(=O)C4=C(CCCC4)C3=O)c(F)cc2Cl)c1=O` [Compound 2, Tert-butyl 3-[2-chloro-5-(1-cyclohexene-1,2-dicarboximido)-4-fluorophenyl]tetrahydro-5-methyl-2,4,6-trioxo-s-triazine-1(2H)-acetate]: the “Herbicide rating (0-9) GLXMAW” value in assay [1] (0.125 kg/ha), in assay [1] (0.250 kg/ha) and in [1] (0.500 kg/ha) was 0.0 throughout. Further, the “Herbicide rating (0-9) ABUTH” value in assay [3] (0.125 kg/ha), in assay [3] (0.250 kg/ha) and in assay [3] (0.500 kg/ha) was 9.0 each time. Further, the “Herbicide rating (0-9) IPOSS” value with IPOMOEA SPP. (0.125 kg/ha), in the assay on IPOMOEA SPP. (0.250 kg/ha) and in the assay with IPOMOEA SPP. (0.500 kg/ha) was 6.0 each time. Moreover, the “Herbicide rating (0-9) ECHCG” value in [5] (0.125 kg/ha), in assay [5] (0.250 kg/ha) and in assay [5] (0.500 kg/ha) was 0.0 each time. Moreover, the “Herbicide rating (0-9) CHEAL” value is listed as 9.0 in the assay on CHENOPODIUM ALBUM, L. (0.125 kg/ha); 9.0 with CHENOPODIUM ALBUM, L. (0.250 kg/ha); 9.0 with CHENOPODIUM ALBUM, L. (0.500 kg/ha). In addition, the “Herbicide rating (0-9) SETVI” value in assay [6] (0.125 kg/ha), in assay [6] (0.250 kg/ha) and in assay [6] (0.500 kg/ha) was 0.0 in each case. For the same molecule, the “Herbicide rating (0-9) TRZAWO” value in assay [4] (0.125 kg/ha), in [4] (0.250 kg/ha) and in [4] (0.500 kg/ha) was 1.0 throughout.
